Measured values reported in ChEMBL document CHEMBL1143537, “Discovery, synthesis and biological evaluation of novel glucokinase activators” (Bioorg Med Chem Lett, 2005).
pEC50: −log10 of the molar value.

tested on: not listed separately; assay: Half life value of the compound; assay type: ADME; details: rat

Row | half-life | Compound
1 | 54 min | CC(C)Oc1cc(OCCc2ccsc2)cc(C(=O)Nc2ccc(C(=O)O)cn2)c1

tested on: not listed separately; assay: Volume of distribution of the compound; assay type: ADME; details: rat; read-out: Activity

Row | Vd | Compound
2 | 0.3 L/kg | CC(C)Oc1cc(OCCc2ccsc2)cc(C(=O)Nc2ccc(C(=O)O)cn2)c1

target: T1, Hexokinase-4 (Homo sapiens, UniProt P35557); assay: Potency in Glucokinase activation assay; details: not given
T1 sequence (P35557 whole entry): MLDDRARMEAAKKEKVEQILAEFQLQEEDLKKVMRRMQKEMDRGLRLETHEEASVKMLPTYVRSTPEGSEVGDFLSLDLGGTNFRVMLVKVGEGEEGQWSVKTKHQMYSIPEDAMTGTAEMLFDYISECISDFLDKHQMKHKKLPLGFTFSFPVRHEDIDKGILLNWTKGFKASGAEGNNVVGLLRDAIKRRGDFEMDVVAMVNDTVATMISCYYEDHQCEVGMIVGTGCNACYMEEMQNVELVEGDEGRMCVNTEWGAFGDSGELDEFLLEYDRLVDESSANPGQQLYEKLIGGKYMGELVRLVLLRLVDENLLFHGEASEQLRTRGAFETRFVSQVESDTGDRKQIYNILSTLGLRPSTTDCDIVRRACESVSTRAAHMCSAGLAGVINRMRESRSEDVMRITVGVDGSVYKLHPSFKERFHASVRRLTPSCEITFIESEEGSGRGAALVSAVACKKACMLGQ

Row | pEC50 | Compound
3 | 5.49 | CSc1ccc(OCc2ccccc2)c(/C=C/c2ccc(C(=O)O)cn2)c1
4 | < 5.00 | O=C(O)c1ccc(OCc2cc(OCc3ccccc3)cc(OCc3ccccc3)c2)nc1
5 | < 5.00 | O=C(O)c1ccc(NC(=O)c2cccc(OCc3ccccc3Cl)c2OCc2ccccc2Cl)nc1
6 | 5.75 | CC(C)Oc1cc(OCCc2ccncc2)cc(C(=O)Nc2ccc(C(=O)O)cn2)c1
7 | 5.90 | CC(C)Oc1cc(OCCc2cccnc2)cc(C(=O)Nc2ccc(C(=O)O)cn2)c1
8 | < 5.00 | O=C(O)c1ccc(CCc2cc(OCc3ccccc3)cc(OCc3ccccc3)c2)nc1
9 | < 5.00 | O=C(O)c1ccc(C(=O)Nc2cc(OCc3ccccc3)cc(OCc3ccccc3)c2)nc1
10 | < 5.00 | O=C(O)c1ccc(NC(=O)c2ccccc2OCc2ccccc2)nc1
11 | 5.37 | CSc1ccc(OCc2ccccc2)c(C(=O)Nc2ccc(C(=O)O)cn2)c1
12 | < 5.00 | CSc1ccc(OCc2ccccc2)c(NC(=O)c2ccc(C(=O)O)cn2)c1

Continued, compound first:

Row | Compound | pEC50
13 | CC(C)Oc1cc(OCc2ccccc2F)cc(C(=O)Nc2ccc(C(=O)O)cn2)c1 | 7.00
14 | COc1cc(OC)cc(OCc2ccc(C(=O)O)cn2)c1 | < 5.00
15 | O=C(O)c1ccc(NC(=O)c2cc(OCc3ccccc3)cc(OCc3ccccc3)c2)nc1 | 6.40
16 | CC(C)Oc1cc(OCCCc2ccccc2)cc(C(=O)Nc2ccc(C(=O)O)cn2)c1 | 6.38
17 | CC(C)Oc1cc(OCC2CCCC2)cc(C(=O)Nc2ccc(C(=O)O)cn2)c1 | 6.19
18 | CC(C)Oc1cc(OCCC2CCOCC2)cc(C(=O)Nc2ccc(C(=O)O)cn2)c1 | 5.88
19 | CC(C)Oc1cc(OCc2ccccc2)cc(C(=O)Nc2ccc(C(=O)O)cn2)c1 | 6.54
20 | CC(C)Oc1cc(OCCC2CCCC2)cc(C(=O)Nc2ccc(C(=O)O)cn2)c1 | 6.77
21 | O=C(O)c1ccc(NC(=O)c2cccc(OCc3ccccc3Cl)c2)nc1 | 6.04
22 | CC(C)Oc1cc(OCCc2ccccc2)cc(C(=O)Nc2ccc(C(=O)O)cn2)c1 | 6.89
23 | O=C(O)c1ccc(NC(=O)c2cc(OCc3ccccc3F)cc(OCc3ccccc3F)c2)nc1 | 7.05
24 | CC(C)COc1cc(OC(C)C)cc(C(=O)Nc2ccc(C(=O)O)cn2)c1 | 6.24

tested on: not listed separately; assay: Clearance value of the compound; assay type: ADME, organism-based; details: rat, in vivo

Row | clearance | Compound
25 | 3.8 mL/min/kg | CC(C)Oc1cc(OCCc2ccsc2)cc(C(=O)Nc2ccc(C(=O)O)cn2)c1
